Read-outs that look alike come from different tables or passages of the source.
Columns and labels:
[1] = tested on: PRMT5-dependent Symmetric Di-methyl Arginine signal in HCT116 homozygous MTAP Knockout cells; experiment: SYM11 In-Cell Western in HCT116 homozygous MTAP knockout cells; format: cell-based; details: 4 days of treatment, SYM11/DRAQ5 ratio as percent of DMSO control, read-out: In-cell-Western (SYM11) IC50 (nM) HCT116 MTAP_KO
Method: HCT116 cells were genetically engineered to knock out the function of both MTAP alleles using a CRISPR/Cas9 system and an sgRNA targeting the MTAP gene. Following Cas9/MTAP sgRNA transduction, clones were screened to confirm that each allele of the MTAP gene had been inactivated (i.e., homozygous MTAP knock out) creating an MTAP-deficient cell.
Control samples were analyzed in parallel.
Briefly, on Day 0, 2,000 HCT116 parental or HCT116 homozygous MTAP knockout cells were seeded in 96 well plates in McCoy's 5A supplemented with 10% fetal bovine serum and pen/strep and the cells were incubated overnight at 37° C. plus 5% CO2. The following day, cells were treated with DMSO vehicle control or a dose response of PRMT5 inhibitors, and incubated at 37° C. plus 5% CO^2 for four days.
After 4 days of treatment, the cells were fixed by adding 50 μl of 4% paraformaldehyde solution to each well and the cells were incubated for 20 min at room temperature. The paraformaldehyde solution was removed, 150 μl of ice-cold methanol was added and the plate was placed −20° C. for 10 minutes. The methanol was removed, 150 μl of Odyssey Blocking buffer+0.05% Tween20 was added and the plate was incubated at room temperature with shaking for one hour.
The primary SYM11 antibody solution was removed by aspiration and the wells were washed three consecutive times with phosphate buffered saline containing 0.1% Tween-20 (PBST).
The secondary antibody solution was removed by aspiration and the wells were washed three consecutive times with PBST.
The SYM11 signal and the DRAQ5 signal were quantified using a Li-Cor Odyssey machine reading at […], respectively. The SYM11/DRAQ5 ratio was used to calculate the inhibition of Symmetric Dimethyl Arginine as percent of DMSO control.

[2] = tested on: HCT116 homozygous MTAP knockout cells; experiment: Proliferation assay (CellTiter-Glo, 10 days) in HCT116 homozygous MTAP knockout cells; format: cell-based; details: CellTiter-Glo after 10 days of treatment, read-out: Proliferation IC50 (nM) HCT116 MTAP_KO
How it was run: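 MTAP-null HCT116 clone made by CRISPR/Cas9 knockout of both alleles, tested beside parental cells. Cells dosed the day after seeding, split 1:10 on day 6 into fresh medium with the same compound level, and read on day 11 by CellTiter-Glo. IC50 taken after 10 days of exposure.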

PRMT5/MEP50 complex = molecular target: T1, PRMT5/MEP50 complex (Homo sapiens, UniProt O14744); experiment: PRMT5:MEP50 HotSpot Assay (full-length histone H2A substrate, plus and minus MTA); format: biochemical; details: IC50 + 2 μM MTA, in the presence of 2 μM MTA
T1 construct: purchased Reaction Biology Corporation
T1 sequence (O14744 2-637 limits assumed): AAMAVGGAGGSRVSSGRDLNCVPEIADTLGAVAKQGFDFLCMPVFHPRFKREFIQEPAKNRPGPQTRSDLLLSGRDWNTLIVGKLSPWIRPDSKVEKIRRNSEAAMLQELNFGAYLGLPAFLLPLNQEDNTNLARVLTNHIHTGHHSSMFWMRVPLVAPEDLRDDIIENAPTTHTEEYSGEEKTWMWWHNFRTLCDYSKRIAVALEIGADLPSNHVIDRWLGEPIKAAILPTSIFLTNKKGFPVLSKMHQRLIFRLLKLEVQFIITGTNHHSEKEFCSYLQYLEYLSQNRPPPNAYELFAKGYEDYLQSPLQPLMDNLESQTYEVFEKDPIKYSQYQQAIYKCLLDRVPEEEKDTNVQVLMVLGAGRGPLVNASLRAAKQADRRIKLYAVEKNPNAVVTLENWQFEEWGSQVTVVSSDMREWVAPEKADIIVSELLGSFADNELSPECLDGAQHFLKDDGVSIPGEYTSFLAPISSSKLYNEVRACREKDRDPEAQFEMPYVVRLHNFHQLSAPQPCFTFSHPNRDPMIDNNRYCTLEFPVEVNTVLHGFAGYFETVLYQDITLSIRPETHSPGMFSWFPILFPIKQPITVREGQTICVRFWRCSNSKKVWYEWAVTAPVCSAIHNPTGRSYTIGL
T1 sequence (Q9BQA1 2-342 partner limits assumed): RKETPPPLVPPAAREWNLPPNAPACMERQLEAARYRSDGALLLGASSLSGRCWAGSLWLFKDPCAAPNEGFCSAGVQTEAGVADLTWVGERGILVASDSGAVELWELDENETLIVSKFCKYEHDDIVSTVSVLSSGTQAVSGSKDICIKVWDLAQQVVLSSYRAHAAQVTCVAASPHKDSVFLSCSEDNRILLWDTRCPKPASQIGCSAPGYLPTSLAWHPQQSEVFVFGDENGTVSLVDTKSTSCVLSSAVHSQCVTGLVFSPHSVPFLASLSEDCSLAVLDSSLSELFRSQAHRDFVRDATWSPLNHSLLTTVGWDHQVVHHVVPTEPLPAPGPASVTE
How it was run: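 Radiometric HotSpot format using recombinant full-length histone H2A as substrate, run with and without MTA. Reactions were stopped and spotted onto filter paper. Tritiated H2A was quantified by scintillation counting.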

Row | Compound | IC50 [1] [nM] | IC50 [2] [nM] | IC50 (PRMT5/MEP50 complex) [nM] | IC50 ([1]; Homo sapiens, HCT-116, 96 h) [nM] | IC50 ([2]; Homo sapiens, HCT-116, 240 h) [nM]
1 | Cn1ncc(-c2cc(Cl)c3c(=O)[nH]nc(CN)c3c2)c1-c1c(F)ccc(OC2CC2)c1C#N (atropisomer, axis not shown; (M)) [Example 16-56, (M)-2-[4-[4-(aminomethyl)-8-chloro-1-oxo-2H-phthalazin-6-yl]-2-methyl-pyrazol-3-yl]-6-(cyclopropoxy)-3-fluoro-benzonitrile] | 9 | 22 | 113 |  | 
2 | Cc1cc(-c2cnn(C)c2-c2c(F)ccc(OC3CC3)c2C#N)cc2c(CN)n[nH]c(=O)c12 (atropisomer, axis not shown; (P)) [Example 16-47, (P)-2-[4-[4-(aminomethyl)-8-methyl-1-oxo-2H-phthalazin-6-yl]-2-methyl-pyrazol-3-yl]-6-(cyclopropoxy)-3-fluoro-benzonitrile] |  | 51 | 304 | 11 | 
3 | Cn1ncc(-c2cc(Cl)c3c(=O)[nH]nc(CN)c3c2)c1-c1c(F)ccc(OC2CC2)c1C#N (atropisomer, axis not shown; (P)) [Example 16-55, (P)-2-[4-[4-(aminomethyl)-8-chloro-1-oxo-2H-phthalazin-6-yl]-2-methyl-pyrazol-3-yl]-6-(cyclopropoxy)-3-fluoro-benzonitrile] | 57 | 77 | 260 |  | 
4 | Cn1ncc(-c2ccc3c(=O)[nH]nc(CN)c3c2)c1-c1c(C#N)cc2ccccc2c1Cl (single isomer, unassigned) [Example 16-5] | 272 | 2850 | 994 |  | 
5 | Cn1ncc(-c2ccc3c(=O)[nH]nc(CN)c3c2)c1-c1c(C#N)cc2ccccc2c1Cl (single isomer, unassigned) [Example 16-6] | 20 | 64 | 28 |  | 
6 | Cn1ncc(-c2ccc3c(=O)[nH]nc(CN)c3c2)c1-c1c(F)c(Cl)c2ccccc2c1C#N (single isomer, unassigned) [Example 16-9, (P)-2-[4-[4-(aminomethyl)-1-oxo-2H-phthalazin-6-yl]-2-methyl-pyrazol-3-yl]-4-chloro-3-fluoro-naphthalene-1-carbonitrile] | 93 | 307 | 248 |  | 
7 | Cn1ncc(-c2ccc3c(=O)[nH]nc(CN)c3c2)c1-c1c(F)c(Cl)c2ccccc2c1C#N (single isomer, unassigned) [Example 16-10, (M)-2-[4-[4-(aminomethyl)-1-oxo-2H-phthalazin-6-yl]-2-methyl-pyrazol-3-yl]-4-chloro-3-fluoro-naphthalene-1-carbonitrile] | 3 | 10 | 15.8 |  | 
8 | Cc1cc(-c2cnn(C)c2-c2c(F)cc3ccccc3c2C#N)cc2c(CN)n[nH]c(=O)c12 (single isomer, unassigned) [Example 16-15, (P)-2-[4-[4-(aminomethyl)-8-methyl-1-oxo-2H-phthalazin-6-yl]-2-methyl-pyrazol-3-yl]-3-fluoro-naphthalene-1-carbonitrile] | 17 | 33 | 95 |  | 
9 | Cc1cc(-c2cnn(C)c2-c2c(F)cc3ccccc3c2C#N)cc2c(CN)n[nH]c(=O)c12 (single isomer, unassigned) [Example 16-16, (M)-2-[4-[4-(aminomethyl)-8-methyl-1-oxo-2H-phthalazin-6-yl]-2-methyl-pyrazol-3-yl]-3-fluoro-naphthalene-1-carbonitrile] | 6 | 6 | 13.6 |  | 
10 | Cc1c(F)c(-c2c(-c3cc(C)c4c(=O)[nH]nc(CN)c4c3)cnn2C)c(C#N)c2ccccc12 (single isomer, unassigned) [Example 16-41, (P)-2-[4-[4-(aminomethyl)-8-methyl-1-oxo-2H-phthalazin-6-yl]-2-methyl-pyrazol-3-yl]-3-fluoro-4-methyl-naphthalene-1-carbonitrile] | 246 | 290 | 640 |  | 
11 | Cc1c(F)c(-c2c(-c3cc(C)c4c(=O)[nH]nc(CN)c4c3)cnn2C)c(C#N)c2ccccc12 (single isomer, unassigned) [Example 16-42, (M)-2-[4-[4-(aminomethyl)-8-methyl-1-oxo-2H-phthalazin-6-yl]-2-methyl-pyrazol-3-yl]-3-fluoro-4-methyl-naphthalene-1-carbonitrile] | 6 | 7 | 4.55 |  | 
12 | Cc1cc(OC2CC2)c(C#N)c(-c2c(-c3cc(C)c4c(=O)[nH]nc(CN)c4c3)cnn2C)c1F (single isomer, unassigned) [Example 16-43, (P)-2-(4-(4-(aminomethyl)-8-methyl-1-oxo-1,2-dihydrophthalazin-6-yl)-1-methyl-1H-pyrazol-5-yl)-6-cyclopropoxy-3-fluoro-4-methylbenzonitrile] | 656 | 1300 | 2000 |  | 
13 | Cc1cc(OC2CC2)c(C#N)c(-c2c(-c3cc(C)c4c(=O)[nH]nc(CN)c4c3)cnn2C)c1F (single isomer, unassigned) [Example 16-44, (M)-2-(4-(4-(aminomethyl)-8-methyl-1-oxo-1,2-dihydrophthalazin-6-yl)-1-methyl-1H-pyrazol-5-yl)-6-cyclopropoxy-3-fluoro-4-methylbenzonitrile] | 13 | 20 | 69.5 |  | 
14 | Cc1cc(-c2cnn(C)c2-c2c(F)c(Cl)cc(OC3CC3)c2C#N)cc2c(CN)n[nH]c(=O)c12 (single isomer, unassigned) [Example 16-45, (P)-2-[4-[4-(aminomethyl)-8-methyl-1-oxo-2H-phthalazin-6-yl]-2-methyl-pyrazol-3-yl]-4-chloro-6-(cyclopropoxy)-3-fluoro-benzonitrile] | 282 | 798 | 1970 |  | 
15 | Cc1cc(-c2cnn(C)c2-c2c(F)c(Cl)cc(OC3CC3)c2C#N)cc2c(CN)n[nH]c(=O)c12 (single isomer, unassigned) [Example 16-46, (M)-2-[4-[4-(aminomethyl)-8-methyl-1-oxo-2H-phthalazin-6-yl]-2-methyl-pyrazol-3-yl]-4-chloro-6-(cyclopropoxy)-3-fluoro-benzonitrile] | 6 | 7 | 41.9 |  | 
16 | Cc1cc(-c2cnn(C)c2-c2c(C#N)cc3ccccc3c2Cl)cc2c(CN)n[nH]c(=O)c12 (single isomer, unassigned) [Example 16-51, (P)-3-[4-[4-(aminomethyl)-8-methyl-1-oxo-2H-phthalazin-6-yl]-2-methyl-pyrazol-3-yl]-4-chloro-naphthalene-2-carbonitrile] | 6 | 706 | 261 |  | 
17 | Cc1cc(-c2cnn(C)c2-c2c(C#N)cc3ccccc3c2Cl)cc2c(CN)n[nH]c(=O)c12 (single isomer, unassigned) [Example 16-52, (M)-3-[4-[4-(aminomethyl)-8-methyl-1-oxo-2H-phthalazin-6-yl]-2-methyl-pyrazol-3-yl]-4-chloro-naphthalene-2-carbonitrile] | 13 | 19 | 29.1 |  | 
18 | Cn1ncc(-c2cc(Cl)c3c(=O)[nH]nc(CN)c3c2)c1-c1c(C#N)cc2ccccc2c1Cl (single isomer, unassigned) [Example 16-63, (P)-3-[4-[4-(aminomethyl)-8-chloro-1-oxo-2H-phthalazin-6-yl]-2-methyl-pyrazol-3-yl]-4-chloro-naphthalene-2-carbonitrile] | 437 | 859 | 341 |  | 
19 | Cn1ncc(-c2cc(Cl)c3c(=O)[nH]nc(CN)c3c2)c1-c1c(C#N)cc2ccccc2c1Cl (single isomer, unassigned) [Example 16-64, (M)-3-[4-[4-(aminomethyl)-8-chloro-1-oxo-2H-phthalazin-6-yl]-2-methyl-pyrazol-3-yl]-4-chloro-naphthalene-2-carbonitrile] | 13 | 17 | 23.3 |  | 
20 | CCn1cccc(-c2c(-c3ccc4c(=O)[nH]nc(CN)c4c3)cnn2C)c1=O [Example 4-255, 4-(aminomethyl)-6-(5-(1-ethy1-2-oxo-1,2-dihydropyridin-3-yl)-1-methyl-1H-pyrazol-4-yl)phthalazin-1(2H)-one] |  |  | 9620 | 955 | 1630

From patent US20240208912A1 (Mirati Therapeutics, Inc., priority 2021, published 2024)
